Assay results taken from patent publication US12090164B2, “Genotype-agnostic rescue of cystic fibrosis with small molecule bicarbonate channels” (The Board of Trustees of the University of Illinois, priority 2017, dated 2024).
“Also recorded” adds a separate entry of the source.

What was measured:
[1] = 13C NMR H13CO3- efflux from liposomes; format: biochemical; details: 1:1,000 AmB:lipid, vs DMSO or water vehicle
[2] = system: primary cultured human CF epithelia; assay: ASL viscosity (FITC-dextran FRAP); format: cell-based; details: AmB 2 μM, 48 h
Procedure: ASL viscosity in airway epithelial cultures was determined (7, 25). Small diameter primary cultured epithelia were used for this experiment (0.33 cm^2). The apical surface was not washed for at least 2 weeks before study. Cultured epithelia were treated with 2 µM AmB administered in perfluorocarbon (FC-72, Sigma) for 48 hours. FITC-dextran (70 kD, Sigma) was then administered to the apical surface of epithelia as a dry powder 2 hrs before measurement of viscosity. FRAP was assayed in a humidified chamber at 37° C. using a Zeiss LSM 510 μMETA microscope. Images were acquired until maximal recovery was reached. At least 6 recovery curves from different locations in each culture were acquired and averaged to obtain data for one epithelial culture. The time constant […] was calculated by regression analysis from fluorescence recovery curves. Viscosity is expressed relative to the time constant of saline (τASL/τsaline).

CuFi-1 epithelia = assay: ASL height by confocal microscopy; format: cell-based, human
Procedure: ASL height was studied using an established fluorescent dye assay (60, 61). Small diameter NuLi and CuFi-1 cultured epithelia were used for this experiment (0.33 cm^2). 24 hours prior to the start of experiment, the apical side of all cultured epithelia was rinsed three times with warm PBS to remove excess mucus. NuLi epithelia were treated with perfluorocarbon (FC-72) vehicle or 500 µM basolateral bumetanide in DMSO vehicle applied to the media, and CuFi epithelia were treated with 20 μL vehicle, 0.005, 0.5, or 50 μM AmB, or 0.5 μM C35deOAmB suspended in perfluorocarbon (FC-72, Sigma), with or without 500 μM basolateral bumetanide in DMSO vehicle applied to the media and incubated for 24 hours at 37° C. After 24 hours, 2.5 μL of a 2 mg/mL 70 kDa Texas Red-dextran conjugate (Molecular Probes) solution in PBS was added to the apical side of the epithelia, followed by 100 μL of FC-770 to prevent evaporation. Then the culture support was placed on top of 100 μL of PBS on a 10 mm glass bottom Fluorodish for imaging (World Precision Instruments). Epithelia were imaged immediately after dye addition and again at 24 hours to examine dye absorption. Three Z-stack images per membrane were taken on an Zeiss LSM700 confocal microscope at 40× oil immersion. These images were analyzed using ImageJ (62) to determine the average ASL height in the center 1300 pixels of each image. Images were smoothed, converted to 8-bit, and thresholded to most accurately represent the red area. The parameters for Analyze Particles were particles from 1-Infinity μm^2 in size and from 0%-100% circularity. Height was determined by dividing the area output in pixels by the known 1300 pixel width and converted to microns using the known scaling factor of 0.49 µm/pixel.

[3] = system: NuLi (CFTR^+/+) epithelia; assay: ASL pH in non-CF cultured airway epithelia; format: cell-based, human; details: apical AmB 2 μM, 48 h
Procedure: Small diameter NuLi, CuFi, and primary cultured epithelia were used for this experiment (0.33 cm^2). The ratiometric pH indicator SNARF-conjugated dextran (Molecular Probes) was used to measure ASL pH. SNARF powder was suspended via sonication in perfluorocarbon (FC-72, Sigma) and distributed onto the apical surface. ASL pH was measured 2 hr later (3, 4, 25). SNARF was excited at 488 nm and emission was recorded at 580 nm and 640 nm using a Zeiss LSM 800 microscope at 40× water immersion for cell line cultures and a Zeiss LSM 510 microscope for primary cultures. To generate a standard curve for pH determination, SNARF was dissolved in colorless pH standards and fluorescence ratios were converted to pH.
Agents tested in this assay were first lyophilized into powder and then suspended in the appropriate volume of perfluorocarbon (FC-72, Sigma) and sonicated for 1 minute to suspend. AmBisome should not be sonicated; instead, the fine powder was suspended by vortexing.
In all experiments, ASL pH of compound-treated epithelia was measured compared the results to vehicle-treated epithelia.
For apical AmB administration, cultured airway epithelia were incubated for 30 min-48 hrs at 37° C. before measurement of ASL pH. For AmB-cholesterol complex and C35deOAmB administration, cultured airway epithelia were incubated for 48 hrs at 37° C. before measurement of ASL pH. […]

C[C@@H]1[C@H](O)[C@@H](C)/C=C/C=C/C=C/C=C/C=C/C=C/C=C/[C@H](O[C@@H]2O[C@H](C)[C@@H](O)[C@H](N)[C@@H]2O)C[C@@H]2O[C@](O)(C[C@@H](O)C[C@@H](O)[C@H](O)CC[C@@H](O)C[C@@H](O)CC(=O)O[C@H]1C)C[C@H](O)[C@H]2C(=O)O [AmB, amphotericin B]
H^13CO3^− efflux from liposomes [1]: AmB is able to facilitate transmembrane bicarbonate efflux; also recorded: Robust and rapid release; also recorded: caused H^13CO3^− efflux; also recorded: AmB is able to facilitate HCO3^− efflux | ASL viscosity (τASL/τsaline) [2]: decreased ASL viscosity across a wide range of patient genotypes | average magnitude of viscosity reduction [2]: ~1.5 units | ASL height, basolateral AmB (CuFi-1 epithelia): did not increase ASL height | ASL height, apical addition (CuFi-1 epithelia; 0.5 μM): increased ASL height in CuFi-1 epithelia to match that of NuLi epithelia; also recorded: increases ASL height | ASL pH in non-CF epithelia [3]: No increase in ASL pH was observed
